Reference: paper PMC8449129, “Single tracer-based protocol for broad-spectrum kinase profiling in live cells with NanoBRET” (STAR Protocols, 2021)

How the values were obtained:
Experiment in all cases: cell-based
Set-up in all cases: NanoBRET live-cell target engagement; % occupancy from displacement of tracer K10 on NanoLuc-kinase fusions, mean n=3
Settings in all cases: HEK293, read-out: % inhibition
FLT3 = FLT3 (Homo sapiens, UniProt P36888)
How it was run: (§1)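 Live-cell NanoBRET target engagement: cells expressing kinase–NanoLuc fusion with tracer treated with compound 2 h at 37 °C, 5% CO2. BRET read from donor (450 nm) and acceptor (610/630 nm) emission with 20 μM extracellular NanoLuc inhibitor; % occupancy calculated relative to tracer+DMSO and zero-BRET controls.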

MAP3K21 = MAP3K21 (Homo sapiens, UniProt Q5TCX8)
How it was run: as §1

CSNK1D = CSNK1D (Homo sapiens, UniProt P48730)
How it was run: as §1

TNK1 = TNK1 (Homo sapiens, UniProt Q13470)
How it was run: as §1

LIMK2 = LIMK2 (Homo sapiens, UniProt P53671)
How it was run: as §1

NEK2 = NEK2 (Homo sapiens, UniProt P51955)
How it was run: as §1

PHKG2 = PHKG2 (Homo sapiens, UniProt P15735)
How it was run: as §1

PLK4 = PLK4 (Homo sapiens, UniProt O00444)
How it was run: as §1

CAMK1 = CAMK1 (Homo sapiens, UniProt Q14012)
How it was run: as §1

ULK2 = ULK2 (Homo sapiens, UniProt Q8IYT8)
How it was run: as §1

PKMYT1 = PKMYT1 (Homo sapiens, UniProt Q99640)
How it was run: as §1

CDKL2 = CDKL2 (Homo sapiens, UniProt Q92772)
How it was run: as §1

MKNK2 = MKNK2 (Homo sapiens, UniProt Q9HBH9)
How it was run: as §1

CDK20 = CDK20 (Homo sapiens, UniProt Q8IZL9)
How it was run: as §1

AKT2 = AKT2 (Homo sapiens, UniProt P31751)
How it was run: as §1

MAST4 = MAST4 (Homo sapiens, UniProt O15021)
How it was run: as §1

TLK1 = TLK1 (Homo sapiens, UniProt Q9UKI8)
How it was run: as §1

MAPK11 = MAPK11 (Homo sapiens, UniProt Q15759)
How it was run: as §1

Chain of MAST4 (O15021 whole entry): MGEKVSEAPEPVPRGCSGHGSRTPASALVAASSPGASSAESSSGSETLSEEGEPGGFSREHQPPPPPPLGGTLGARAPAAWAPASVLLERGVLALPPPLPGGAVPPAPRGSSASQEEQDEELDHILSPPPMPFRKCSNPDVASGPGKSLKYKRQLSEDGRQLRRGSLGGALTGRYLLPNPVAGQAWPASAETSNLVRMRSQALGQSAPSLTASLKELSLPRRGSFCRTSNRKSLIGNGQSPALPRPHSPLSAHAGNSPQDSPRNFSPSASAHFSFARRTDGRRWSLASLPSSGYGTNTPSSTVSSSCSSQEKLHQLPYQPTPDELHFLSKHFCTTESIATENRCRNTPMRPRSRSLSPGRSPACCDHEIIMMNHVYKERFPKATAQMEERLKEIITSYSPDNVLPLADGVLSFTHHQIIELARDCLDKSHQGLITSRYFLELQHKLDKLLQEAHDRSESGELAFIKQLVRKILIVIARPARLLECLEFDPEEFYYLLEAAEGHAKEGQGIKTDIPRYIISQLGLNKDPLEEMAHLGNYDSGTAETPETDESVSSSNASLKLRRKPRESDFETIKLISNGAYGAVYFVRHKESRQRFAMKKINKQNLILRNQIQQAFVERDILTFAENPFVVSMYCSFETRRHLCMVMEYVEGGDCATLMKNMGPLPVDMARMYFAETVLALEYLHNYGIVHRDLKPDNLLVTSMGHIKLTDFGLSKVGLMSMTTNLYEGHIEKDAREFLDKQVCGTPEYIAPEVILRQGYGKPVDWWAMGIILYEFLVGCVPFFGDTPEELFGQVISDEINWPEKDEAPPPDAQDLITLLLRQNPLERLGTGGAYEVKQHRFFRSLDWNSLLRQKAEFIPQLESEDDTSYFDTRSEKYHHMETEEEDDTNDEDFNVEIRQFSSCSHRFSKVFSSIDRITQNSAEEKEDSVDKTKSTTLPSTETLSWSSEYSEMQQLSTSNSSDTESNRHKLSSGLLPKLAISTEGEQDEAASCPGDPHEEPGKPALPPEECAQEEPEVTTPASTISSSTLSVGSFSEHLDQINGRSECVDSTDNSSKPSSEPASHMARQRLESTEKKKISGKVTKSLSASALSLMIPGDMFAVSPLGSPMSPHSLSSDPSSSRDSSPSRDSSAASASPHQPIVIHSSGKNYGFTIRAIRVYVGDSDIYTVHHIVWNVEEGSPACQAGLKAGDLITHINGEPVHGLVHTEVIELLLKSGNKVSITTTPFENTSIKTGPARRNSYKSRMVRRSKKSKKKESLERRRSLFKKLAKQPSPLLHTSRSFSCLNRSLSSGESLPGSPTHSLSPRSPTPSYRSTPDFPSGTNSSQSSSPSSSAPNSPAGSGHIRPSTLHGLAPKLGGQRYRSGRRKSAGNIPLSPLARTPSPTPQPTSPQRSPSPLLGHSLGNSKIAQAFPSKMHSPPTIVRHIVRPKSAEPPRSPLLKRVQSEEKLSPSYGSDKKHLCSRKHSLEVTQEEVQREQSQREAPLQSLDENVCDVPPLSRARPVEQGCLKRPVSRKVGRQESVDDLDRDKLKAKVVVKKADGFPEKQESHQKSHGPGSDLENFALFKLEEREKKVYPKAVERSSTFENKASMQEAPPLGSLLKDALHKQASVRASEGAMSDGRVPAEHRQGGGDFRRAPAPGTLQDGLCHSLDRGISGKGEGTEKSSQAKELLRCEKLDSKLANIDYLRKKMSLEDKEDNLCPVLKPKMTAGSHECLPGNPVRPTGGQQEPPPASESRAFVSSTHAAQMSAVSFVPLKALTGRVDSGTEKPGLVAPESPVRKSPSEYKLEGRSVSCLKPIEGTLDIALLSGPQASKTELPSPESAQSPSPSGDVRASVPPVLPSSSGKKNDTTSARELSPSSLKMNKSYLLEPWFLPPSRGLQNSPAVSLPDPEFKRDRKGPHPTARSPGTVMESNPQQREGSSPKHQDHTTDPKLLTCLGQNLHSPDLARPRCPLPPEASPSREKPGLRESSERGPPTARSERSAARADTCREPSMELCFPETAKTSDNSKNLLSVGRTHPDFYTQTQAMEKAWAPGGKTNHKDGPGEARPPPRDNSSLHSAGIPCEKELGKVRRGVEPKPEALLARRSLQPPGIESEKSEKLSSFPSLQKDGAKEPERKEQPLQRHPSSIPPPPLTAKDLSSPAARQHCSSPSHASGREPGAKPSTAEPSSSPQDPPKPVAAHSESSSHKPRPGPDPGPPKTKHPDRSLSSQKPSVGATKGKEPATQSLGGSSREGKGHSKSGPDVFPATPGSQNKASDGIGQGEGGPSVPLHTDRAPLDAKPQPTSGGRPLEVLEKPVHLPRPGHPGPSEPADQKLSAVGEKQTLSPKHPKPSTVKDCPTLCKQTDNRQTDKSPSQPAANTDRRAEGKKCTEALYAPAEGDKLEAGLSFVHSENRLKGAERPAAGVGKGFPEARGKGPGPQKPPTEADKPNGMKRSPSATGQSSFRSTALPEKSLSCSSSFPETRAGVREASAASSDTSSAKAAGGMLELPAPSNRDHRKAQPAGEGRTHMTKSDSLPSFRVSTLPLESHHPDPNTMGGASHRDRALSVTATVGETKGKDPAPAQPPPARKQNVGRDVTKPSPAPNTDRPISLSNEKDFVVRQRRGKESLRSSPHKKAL
Chain of CAMK1 (Q14012 whole entry): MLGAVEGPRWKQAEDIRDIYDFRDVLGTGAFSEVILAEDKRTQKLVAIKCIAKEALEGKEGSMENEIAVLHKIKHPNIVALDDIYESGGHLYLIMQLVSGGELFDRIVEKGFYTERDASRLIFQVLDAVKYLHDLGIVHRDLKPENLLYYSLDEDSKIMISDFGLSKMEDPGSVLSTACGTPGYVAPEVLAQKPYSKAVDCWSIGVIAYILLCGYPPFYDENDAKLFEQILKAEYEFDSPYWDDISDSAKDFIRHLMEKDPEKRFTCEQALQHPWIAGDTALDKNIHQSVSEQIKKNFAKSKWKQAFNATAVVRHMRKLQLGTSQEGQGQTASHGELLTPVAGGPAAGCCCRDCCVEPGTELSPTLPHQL
Chain of LIMK2 (P53671 whole entry): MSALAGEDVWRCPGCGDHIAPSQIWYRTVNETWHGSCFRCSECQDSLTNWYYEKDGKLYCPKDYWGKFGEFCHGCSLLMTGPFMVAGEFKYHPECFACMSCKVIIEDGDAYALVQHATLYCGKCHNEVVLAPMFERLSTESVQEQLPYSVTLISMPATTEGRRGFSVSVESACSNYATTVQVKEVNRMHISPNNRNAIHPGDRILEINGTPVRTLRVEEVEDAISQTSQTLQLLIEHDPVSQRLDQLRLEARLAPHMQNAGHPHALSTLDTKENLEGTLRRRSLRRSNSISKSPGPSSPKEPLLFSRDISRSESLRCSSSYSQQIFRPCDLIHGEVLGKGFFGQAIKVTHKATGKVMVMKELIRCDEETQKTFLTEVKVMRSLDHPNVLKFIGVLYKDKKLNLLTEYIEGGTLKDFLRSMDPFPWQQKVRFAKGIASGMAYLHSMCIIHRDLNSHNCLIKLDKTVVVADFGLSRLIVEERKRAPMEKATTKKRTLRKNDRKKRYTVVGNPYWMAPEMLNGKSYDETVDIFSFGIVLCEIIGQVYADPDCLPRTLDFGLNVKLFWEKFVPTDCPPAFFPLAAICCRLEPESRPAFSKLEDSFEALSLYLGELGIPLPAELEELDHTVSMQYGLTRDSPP
Chain of MKNK2 (Q9HBH9 whole entry): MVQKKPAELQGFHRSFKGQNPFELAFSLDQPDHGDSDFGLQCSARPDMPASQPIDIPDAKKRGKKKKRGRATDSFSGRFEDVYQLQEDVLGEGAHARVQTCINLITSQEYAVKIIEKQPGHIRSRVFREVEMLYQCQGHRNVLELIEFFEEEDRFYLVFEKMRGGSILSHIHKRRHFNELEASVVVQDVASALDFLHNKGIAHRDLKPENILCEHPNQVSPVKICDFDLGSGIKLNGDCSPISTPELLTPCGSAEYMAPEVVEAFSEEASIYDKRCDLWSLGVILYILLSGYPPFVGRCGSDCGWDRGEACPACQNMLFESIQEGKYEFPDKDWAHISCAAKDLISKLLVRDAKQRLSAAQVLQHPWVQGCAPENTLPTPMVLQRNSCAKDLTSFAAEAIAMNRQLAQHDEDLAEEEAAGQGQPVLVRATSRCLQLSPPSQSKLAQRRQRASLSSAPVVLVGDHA
Chain of FLT3 (P36888 whole entry, the tested form may be a part): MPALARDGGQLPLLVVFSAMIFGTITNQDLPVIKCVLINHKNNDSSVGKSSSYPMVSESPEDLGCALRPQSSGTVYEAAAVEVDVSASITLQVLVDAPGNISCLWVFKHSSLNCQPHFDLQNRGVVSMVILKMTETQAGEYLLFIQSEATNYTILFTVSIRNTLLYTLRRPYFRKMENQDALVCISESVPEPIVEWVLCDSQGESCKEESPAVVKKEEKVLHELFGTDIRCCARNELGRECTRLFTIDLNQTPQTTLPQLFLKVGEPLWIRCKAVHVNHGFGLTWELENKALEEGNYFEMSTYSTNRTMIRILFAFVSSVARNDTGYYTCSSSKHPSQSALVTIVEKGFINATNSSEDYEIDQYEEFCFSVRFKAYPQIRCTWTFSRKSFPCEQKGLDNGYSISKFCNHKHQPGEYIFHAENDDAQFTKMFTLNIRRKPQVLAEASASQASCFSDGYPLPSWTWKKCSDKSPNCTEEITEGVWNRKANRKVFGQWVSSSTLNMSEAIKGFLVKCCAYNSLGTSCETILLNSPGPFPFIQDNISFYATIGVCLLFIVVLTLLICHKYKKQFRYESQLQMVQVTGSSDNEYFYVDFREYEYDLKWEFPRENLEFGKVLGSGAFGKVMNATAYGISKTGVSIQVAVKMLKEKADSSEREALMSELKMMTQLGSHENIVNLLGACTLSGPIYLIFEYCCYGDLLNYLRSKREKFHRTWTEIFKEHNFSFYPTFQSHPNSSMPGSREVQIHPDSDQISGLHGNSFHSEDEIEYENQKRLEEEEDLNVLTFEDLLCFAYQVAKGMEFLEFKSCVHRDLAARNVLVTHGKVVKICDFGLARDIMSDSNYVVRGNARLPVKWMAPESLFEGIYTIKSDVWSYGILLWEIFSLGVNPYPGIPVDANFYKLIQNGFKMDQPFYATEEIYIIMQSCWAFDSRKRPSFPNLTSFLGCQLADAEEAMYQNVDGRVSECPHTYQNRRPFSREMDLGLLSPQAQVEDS

## C[C@@H](Oc1cc(-c2cnn(C3CCNCC3)c2)cnc1N)c1c(Cl)ccc(F)c1Cl [crizotinib]
FLT3
  inhibition at 1 µM: -4%
MAP3K21
  inhibition at 1 µM: 3%
CSNK1D
  inhibition at 1 µM: -4%
TNK1
  inhibition at 1 µM: -6%
LIMK2
  inhibition at 1 µM: 32%
NEK2
  inhibition at 1 µM: 6%
PHKG2
  inhibition at 1 µM: 3%
PLK4
  inhibition at 1 µM: 4%
CAMK1
  inhibition at 1 µM: 7%
ULK2
  inhibition at 1 µM: -1%
PKMYT1
  inhibition at 1 µM: 6%
CDKL2
  inhibition at 1 µM: 21%
MKNK2
  inhibition at 1 µM: 1%
CDK20
  inhibition at 1 µM: -11%
AKT2
  inhibition at 1 µM: -1%
MAST4
  inhibition at 1 µM: 6%
TLK1
  inhibition at 1 µM: -5%
MAPK11
  inhibition at 1 µM: 0%
